# Laboratory results: article PMC6137095 (Scientific Reports, 2018)
# How the values were obtained:
# Assay type in all cases: binding
# mSin3B PAH1 domain [1] = target: T1, mSin3B PAH1 domain (Mus musculus, UniProt Q62141); experiment: 1H-15N HSQC titration, STD and WaterLOGSY NMR
# T1 construct: gene Sin3b; PAH1 domain, a.a; 28–107 with a Met at the N-terminus (GST fusion for WaterLOGSY/STD)
# T1 sequence (Q62141 28-107): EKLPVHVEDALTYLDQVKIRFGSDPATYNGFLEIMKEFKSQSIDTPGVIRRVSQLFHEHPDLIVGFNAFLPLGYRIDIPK
# mSin3B PAH1 domain [2] = target: T1, mSin3B PAH1 domain; experiment: WaterLOGSY NMR titration; STD and 1H-15N HSQC
# mSin3B PAH1 domain [3] = target: T1, mSin3B PAH1 domain; experiment: 1H-15N HSQC, STD and WaterLOGSY NMR (weak/moderate)
# mSin3B PAH1 domain [4] = target: T1, mSin3B PAH1 domain; experiment: STD, WaterLOGSY and HSQC NMR
compound,measurement,setting,value
C#CC(C)(O)CCc1cc(C)c(OC)cc1C (stereo not shown) [YN3],"1H-15N HSQC titration, STD and WaterLOGSY NMR",mSin3B PAH1 domain [1],"four compounds YN29, YN31, YN3, and YN28, have a strong affinity for the mSin3B PAH1 domain"
"CN(C)CC/C=C1/c2ccccc2Sc2ccc(Cl)cc21 [YN28, chlorprothixene]",Kd,mSin3B PAH1 domain [2],35 ± 11 µM
"CN(C)CCCN1c2ccccc2Sc2ccc(Cl)cc21 [YN29, chlorpromazine]",Kd,mSin3B PAH1 domain [2],15 ± 4.2 µM
COc1cc(CNC(=O)CCCC/C=C/C(C)C)ccc1O [YN39],"1H-15N HSQC, STD and WaterLOGSY NMR (weak/moderate)",mSin3B PAH1 domain [3],"only YN39, YN40, and YN42 showed clear signals in the STD spectra"
CNCCCC12CCC(c3ccccc31)c1ccccc12 [YN40],"1H-15N HSQC, STD and WaterLOGSY NMR (weak/moderate)",mSin3B PAH1 domain [3],"only YN39, YN40, and YN42 showed clear signals in the STD spectra"
Clc1ccc2c(c1)C(N1CCNCC1)=Nc1ccccc1O2 [YN42],"1H-15N HSQC, STD and WaterLOGSY NMR (weak/moderate)",mSin3B PAH1 domain [3],"only YN39, YN40, and YN42 showed clear signals in the STD spectra"
Fc1ccc([C@@H]2CCNC[C@H]2COc2ccc3c(c2)OCO3)cc1 [paroxetine],"STD, WaterLOGSY and HSQC NMR",mSin3B PAH1 domain [4],"STD, WaterLOGSY, and HSQC experiments showed that paroxetine binds strongly to the PAH1 domain of mSin3B"
